Several values for one entry are separate records, joined by “and”; a condition that tells them apart may be missing. Equal values may be shown once. Inconclusive results and toxic doses are left out. Rule as the data show it: active = T/C of 150% or more; inactive = T/C below 125%.
System: L1210 leukemia ip in BDF1 mice, survival T/C
Test: NCI In Vivo Anticancer Drug Screen. Data for tumor model L1210 Leukemia (intraperitoneal) in B6D2F1 (BDF1) mice
Details: endpoint: mean survival time, higher = longer survival
Outline: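 Value reflects the ratio of survival in compound-treated mice to survival in vehicle-treated controls, with both groups carrying the same transplanted tumor.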

[1] = dose: 100.0 mg/kg/injection, schedule: Q01DX009 (ip), vehicle: Klucel (hydroxypropylcellulose) (HPC)
[2] = dose: 200.0 mg/kg/injection, schedule: Q01DX009 (ip), vehicle: Klucel (hydroxypropylcellulose) (HPC)
[3] = dose: 400.0 mg/kg/injection, schedule: Q01DX009 (ip), vehicle: Klucel (hydroxypropylcellulose) (HPC)
[4] = dose: 100.0 mg/kg/injection, schedule: Q01DX001 (ip), vehicle: carboxymethylcellulose (CMC)
[5] = dose: 200.0 mg/kg/injection, schedule: Q01DX001 (ip), vehicle: carboxymethylcellulose (CMC)
[6] = dose: 400.0 mg/kg/injection, schedule: Q01DX001 (ip), vehicle: carboxymethylcellulose (CMC)
[7] = dose: 50.0 mg/kg/injection, schedule: Q01DX009 (ip), vehicle: saline with Tween-80
[8] = dose: 100.0 mg/kg/injection, schedule: Q01DX009 (ip), vehicle: saline with Tween-80
[9] = dose: 200.0 mg/kg/injection, schedule: Q01DX009 (ip), vehicle: saline with Tween-80
[10] = dose: 400.0 mg/kg/injection, schedule: Q01DX009 (ip), vehicle: saline with Tween-80
[11] = dose: 100.0 mg/kg/injection, schedule: Q01DX001 (ip), vehicle: other
[12] = dose: 200.0 mg/kg/injection, schedule: Q01DX001 (ip), vehicle: other
[13] = dose: 400.0 mg/kg/injection, schedule: Q01DX001 (ip), vehicle: other
[14] = dose: 100.0 mg/kg/injection, schedule: Q01DX001 (ip), vehicle: saline
[15] = dose: 100.0 mg/kg/injection, schedule: Q04DX003 (ip), vehicle: saline with Tween-80
[16] = dose: 200.0 mg/kg/injection, schedule: Q04DX003 (ip), vehicle: saline with Tween-80
[17] = dose: 50.0 mg/kg/injection, schedule: Q01DX001 (ip), vehicle: saline
[18] = dose: 200.0 mg/kg/injection, schedule: Q01DX001 (ip), vehicle: saline
[19] = dose: 400.0 mg/kg/injection, schedule: Q01DX001 (ip), vehicle: saline
[20] = dose: 200.0 mg/kg/injection, schedule: Q04DX003 (ip), vehicle: Klucel (hydroxypropylcellulose) (HPC)
[21] = dose: 400.0 mg/kg/injection, schedule: Q04DX003 (ip), vehicle: Klucel (hydroxypropylcellulose) (HPC)

Measured: T/C

O=[N+]([O-])c1ccccc1S(=O)(=O)Nc1ccccc1F
inactive: [1] 105 % of control | [2] 100 % of control | [3] 101 % of control

CCCCOC(=O)c1ccc(C)s1
inactive: [4] 95 % of control | [5] 101 % of control | [6] 95 % of control

CCOC(=O)CCC(NC(=O)CCCCSc1ncnc2nc[nH]c12)C(=O)OCC (centres undefined)
inactive: dose: 25.0 mg/kg/injection, schedule: Q01DX009 (ip), vehicle: saline with Tween-80 97 % of control | dose: 25.0 mg/kg/injection, schedule: Q01DX009 (oral), vehicle: saline with Tween-80 90 % of control | [7] 101 % of control | dose: 50.0 mg/kg/injection, schedule: Q01DX009 (oral), vehicle: saline with Tween-80 86 % of control | [8] 106 % of control | dose: 100.0 mg/kg/injection, schedule: Q01DX009 (oral), vehicle: saline with Tween-80 100 % of control | [9] 111 % of control | dose: 200.0 mg/kg/injection, schedule: Q01DX009 (oral), vehicle: saline with Tween-80 88 % of control | [10] 107 % of control | dose: 400.0 mg/kg/injection, schedule: Q01DX009 (oral), vehicle: saline with Tween-80 95 % of control

O=C(NCCc1ccccc1)Nc1ccccc1Cl
inactive: dose: 100.0 mg/kg/injection, schedule: Q01DX009 (ip), vehicle: gum acacia 96 % of control | dose: 100.0 mg/kg/injection, schedule: Q04DX003 (ip), vehicle: gum acacia 92 % of control | dose: 200.0 mg/kg/injection, schedule: Q01DX009 (ip), vehicle: gum acacia 115 % of control | dose: 200.0 mg/kg/injection, schedule: Q04DX003 (ip), vehicle: gum acacia 92 % of control | dose: 400.0 mg/kg/injection, schedule: Q01DX009 (ip), vehicle: gum acacia 100 % of control | dose: 400.0 mg/kg/injection, schedule: Q04DX003 (ip), vehicle: gum acacia 97 % of control

ICC1OCOC2C(CI)OCOC12 (centres undefined)
inactive: [11] 103 % of control | [12] 93 % of control | [13] 103 % of control

CCN(CC)C(C)(C)CCl
inactive: [14] 104 % of control

O=S1(=O)c2ccccc2C2CC=CCC21 (centres undefined)
inactive: dose: 50.0 mg/kg/injection, schedule: Q01DX001 (ip), vehicle: carboxymethylcellulose (CMC) 98 % of control | [4] 98 % of control | [5] 98 % of control | [6] 93 % of control

C=Cc1ccc(N)cc1
inactive: [7] 90 % of control | [15] 87 % of control | [9] 93 % of control | [16] 90 % of control

CN(C)/C=N\c1ncnc2c1c(C#N)cn2C1OC(CO)C(O)C1O (centres undefined)
inactive: dose: 6.25 mg/kg/injection, schedule: Q01DX009 (ip), vehicle: saline 92 % of control | dose: 12.5 mg/kg/injection, schedule: Q01DX005 (ip), vehicle: saline 109 % of control | dose: 12.5 mg/kg/injection, schedule: Q01DX009 (ip), vehicle: saline 115 % of control | dose: 25.0 mg/kg/injection, schedule: Q01DX005 (ip), vehicle: saline 101 % of control | dose: 25.0 mg/kg/injection, schedule: Q01DX009 (ip), vehicle: saline 117 % of control

N#Cc1nc(-c2ccccc2)c(-c2ccccc2)nc1C#N
inactive: [1] 97 % of control | [2] 98 % of control | [3] 96 % of control

O=[N+]([O-])c1ccc(Oc2c(Cl)cc(Cl)cc2Cl)c([N+](=O)[O-])c1
inactive: dose: 222.0 mg/kg/injection, schedule: Q01DX Z (ip), vehicle: methylcellulose (MC) 103 % of control | dose: 333.0 mg/kg/injection, schedule: Q01DX Z (ip), vehicle: methylcellulose (MC) 105 % of control | dose: 500.0 mg/kg/injection, schedule: Q01DX Z (ip), vehicle: methylcellulose (MC) 101 % of control

N#CC(c1ccccc1)C(c1ccccc1)c1ccccc1 (centres undefined)
inactive: [17] 102 % of control | [14] 102 % of control | [18] 98 % of control | [19] 98 % of control

CCCCOC(=O)c1ccc(NC(=S)NCCc2ccccc2)cc1
inactive: [1] 103 % of control | [2] 98 % of control | [3] 95 % of control

ClC(c1ccccc1)C1(Br)C=c2ccccc2=C1 (centres undefined)
inactive: [1] 97 % of control | [2] 97 % of control | [20] 105 % of control and 91 % of control | [21] 94 % of control and 103 % of control

Nc1ccc(C(=O)NC(CCC(=O)O)C(=O)O)cc1 (centres undefined)
inactive: dose: 100.0 mg/kg/injection, schedule: Q04DX002 (ip), vehicle: saline with Tween-80 92 % of control | dose: 200.0 mg/kg/injection, schedule: Q04DX002 (ip), vehicle: saline with Tween-80 95 % of control | dose: 400.0 mg/kg/injection, schedule: Q04DX002 (ip), vehicle: saline with Tween-80 92 % of control

O=C(CCCC(=O)N/N=C/c1cc(Br)cc(Br)c1)N/N=C\c1cc(Br)cc(Br)c1
inactive: [17] 96 % of control | [14] 98 % of control | [18] 96 % of control | [19] 90 % of control

CC(=O)c1c(C)n(C)c2ccccc12
inactive: dose: 100.0 mg/kg/injection, schedule: Q01DX001 (ip), vehicle: saline with Tween-80 103 % of control | dose: 100.0 mg/kg/injection, schedule: Q04DX002 (ip), vehicle: Klucel (hydroxypropylcellulose) (HPC) 95 % of control | [15] 95 % of control | dose: 200.0 mg/kg/injection, schedule: Q01DX001 (ip), vehicle: saline with Tween-80 101 % of control | dose: 200.0 mg/kg/injection, schedule: Q04DX002 (ip), vehicle: Klucel (hydroxypropylcellulose) (HPC) 98 % of control | [16] 92 % of control | dose: 400.0 mg/kg/injection, schedule: Q01DX001 (ip), vehicle: saline with Tween-80 103 % of control | dose: 400.0 mg/kg/injection, schedule: Q04DX002 (ip), vehicle: Klucel (hydroxypropylcellulose) (HPC) 109 % of control | dose: 400.0 mg/kg/injection, schedule: Q04DX003 (ip), vehicle: saline with Tween-80 93 % of control

CCS(=O)(=O)c1ccc(NC(=O)OC2CCCCCC2)cc1
inactive: [11] 91 % of control | [12] 91 % of control | [13] 93 % of control

Nc1nc(=O)n(CCCSc2ccc([N+](=O)[O-])cc2)cc1-c1ccc(Cl)c(Cl)c1
inactive: dose: 100.0 mg/kg/injection, schedule: Q04DX003 (ip), vehicle: Klucel (hydroxypropylcellulose) (HPC) 90 % of control | [20] 90 % of control | [21] 88 % of control

CN(C)C(=O)N1CN(c2ccccc2)C2(CCN(CC3COc4ccccc4O3)CC2)C1=O (centres undefined)
inactive: dose: 100.0 mg/kg/injection, schedule: Q01DX001 (ip), vehicle: Klucel (hydroxypropylcellulose) (HPC) 101 % of control | dose: 200.0 mg/kg/injection, schedule: Q01DX001 (ip), vehicle: Klucel (hydroxypropylcellulose) (HPC) 97 % of control | dose: 400.0 mg/kg/injection, schedule: Q01DX001 (ip), vehicle: Klucel (hydroxypropylcellulose) (HPC) 106 % of control

O=C1OC(c2ccccc2)(c2ccccc2)c2cccc3cccc1c23
inactive: [8] 101 % of control | [9] 95 % of control | [10] 91 % of control

From PubChem BioAssay AID248 (DTP/NCI, 2004)
